Data from ChEMBL document CHEMBL1150752, “Inhibition of cow's milk xanthine oxidase by flavonoids” (J Nat Prod, 1988).

Experiments:
[1] = target: T1, Xanthine dehydrogenase/oxidase (Bos taurus, UniProt P80457); test: Inhibition of cow milk xanthine oxidase at 50 ug/mL; conditions: cattle
[2] = target: T1, Xanthine dehydrogenase/oxidase; test: Inhibition of cow milk xanthine oxidase

T1 sequence (P80457 whole entry): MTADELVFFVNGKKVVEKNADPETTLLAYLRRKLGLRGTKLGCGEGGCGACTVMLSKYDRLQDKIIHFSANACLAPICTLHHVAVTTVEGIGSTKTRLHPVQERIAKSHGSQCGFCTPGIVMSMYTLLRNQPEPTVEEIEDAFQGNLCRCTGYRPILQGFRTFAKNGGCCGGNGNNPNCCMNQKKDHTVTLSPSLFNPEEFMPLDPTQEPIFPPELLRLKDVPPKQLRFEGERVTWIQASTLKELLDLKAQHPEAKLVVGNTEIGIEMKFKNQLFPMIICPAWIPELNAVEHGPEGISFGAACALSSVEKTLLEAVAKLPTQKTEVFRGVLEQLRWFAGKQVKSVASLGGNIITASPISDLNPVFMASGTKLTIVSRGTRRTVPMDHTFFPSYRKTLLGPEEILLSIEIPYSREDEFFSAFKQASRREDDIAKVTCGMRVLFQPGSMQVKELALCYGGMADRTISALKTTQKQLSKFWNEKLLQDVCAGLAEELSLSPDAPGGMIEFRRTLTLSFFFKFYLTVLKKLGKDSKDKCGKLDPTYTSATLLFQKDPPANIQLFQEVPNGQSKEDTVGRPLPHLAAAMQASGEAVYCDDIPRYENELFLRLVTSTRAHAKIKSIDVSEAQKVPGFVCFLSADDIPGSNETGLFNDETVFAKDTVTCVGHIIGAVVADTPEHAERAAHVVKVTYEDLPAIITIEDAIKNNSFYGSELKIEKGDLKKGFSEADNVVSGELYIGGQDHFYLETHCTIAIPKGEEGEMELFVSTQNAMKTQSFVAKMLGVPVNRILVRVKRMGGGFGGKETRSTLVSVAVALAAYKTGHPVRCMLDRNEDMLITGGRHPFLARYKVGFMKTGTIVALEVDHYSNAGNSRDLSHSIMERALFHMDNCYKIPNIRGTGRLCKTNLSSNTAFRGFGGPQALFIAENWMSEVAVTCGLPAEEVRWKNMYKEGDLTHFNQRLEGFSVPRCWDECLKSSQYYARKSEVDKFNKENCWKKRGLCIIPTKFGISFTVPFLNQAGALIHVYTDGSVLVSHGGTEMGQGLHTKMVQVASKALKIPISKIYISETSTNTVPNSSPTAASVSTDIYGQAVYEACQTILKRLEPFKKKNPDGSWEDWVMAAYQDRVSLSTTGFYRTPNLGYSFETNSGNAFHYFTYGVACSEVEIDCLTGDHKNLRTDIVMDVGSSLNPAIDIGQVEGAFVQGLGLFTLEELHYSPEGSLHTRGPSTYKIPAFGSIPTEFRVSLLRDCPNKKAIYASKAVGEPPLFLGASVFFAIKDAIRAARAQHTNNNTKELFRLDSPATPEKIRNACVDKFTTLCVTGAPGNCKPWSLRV

inhibition at 50 µg/mL [1] | IC50 [2] | SMILES
69.1% | 35.6 µM | COc1c(-c2ccc(O[C@@H]3O[C@H](CO)[C@@H](O)[C@H](O)[C@H]3O)c(O)c2)oc2cc(O)cc(O)c2c1=O
67.2% | 75.9 µM | O=c1cc(-c2ccc(O)c(O)c2)oc2cc(O[C@@H]3O[C@H](CO)[C@@H](O)[C@H](O)[C@H]3O)cc(O)c12 (single isomer, unassigned) [GALUTEOLIN]
55.7% | 14.1 µM | COc1ccc(-c2cc(=O)c3c(O)cc(O)cc3o2)cc1 [ACACETIN]
0% |  | COc1c(O[C@@H]2O[C@H](CO)[C@@H](O)[C@H](O)[C@H]2O)cc2occ(-c3ccc(O)cc3)c(=O)c2c1O [TECTORIDIN]
0% |  | COc1ccc(-c2cc(=O)c3c(O)cc(O[C@@H]4O[C@H](CO)[C@@H](O)[C@H](O)[C@H]4O)cc3o2)cc1 [TILIANINE]
39.5% |  | COc1c(-c2ccc(O)c(O)c2)oc2cc(O[C@@H]3O[C@H](CO)[C@@H](O)[C@H](O)[C@H]3O)cc(O)c2c1=O [TRANSILIN]
16.1% |  | O=c1c(O[C@@H]2O[C@H](CO)[C@H](O)[C@H](O)[C@H]2O)c(-c2ccc(O)cc2)oc2cc(O)cc(O)c12 [TRIFOLIN]

Further lines, the compound ahead of its results:

SMILES | inhibition at 50 µg/mL [1] | IC50 [2]
COc1c(O)cc2oc(-c3ccc(O)cc3)c(OC)c(=O)c2c1O [3,6-DIMETHOXY KAEMPFEROL] | 95% | 0.03 µM
COc1c(-c2ccc(O)c(O)c2)oc2cc(O)cc(O)c2c1=O [3-O-METHYLQUERCETIN] | 98.5% | 31.6 µM
O=c1cc(-c2ccc(O)c(-c3c(O)cc(O)c4c(=O)cc(-c5ccc(O)cc5)oc34)c2)oc2cc(O)cc(O)c12 [AMENTOFLAVONE] | 100% | 35.3 µM
O=c1cc(-c2ccccc2)oc2cc(O)c(O)c(O)c12 [BAICALEIN] | 85.5% | 3.3 µM
O=C1c2c(O)cc(O)cc2O[C@H](c2ccc(O)cc2)[C@H]1O [DIHYDROKAEMPFEROL] | 66.9% | 93.8 µM
O=C1CC(c2ccc(O)c(O)c2)Oc2c1c(O)cc(O)c2[C@@H]1C(=O)c2c(O)cc(O)cc2O[C@H]1c1ccc(O)cc1 (stereo not given in full) [FUKUGETIN] | 97.2% | 22.3 µM
COc1cc(-c2oc3cc(O)cc(O)c3c(=O)c2OS(=O)(=O)O)ccc1O [PERSICARIN] | 90.3% | 34.6 µM
O=c1cc(-c2ccc(O)cc2)oc2cc(O)c(O)c(O)c12 [SCUTELLAREIN] | 67.3% | 12.6 µM
COc1c(O)cc2occ(-c3ccc(O)cc3)c(=O)c2c1O [TECTORIGENIN] | 0% | 
O=c1cc(-c2ccc(O)cc2)oc2c([C@@H]3O[C@H](CO)[C@@H](O)[C@H](O)[C@H]3O)c(O)cc(O)c12 [VITEXIN] | 0% | 
COc1c(O)cc(O)c2c(=O)cc(-c3ccccc3)oc12 [WOGONIN] | 50.2% | 176 µM
